Like-named read-outs stand apart in the source and are kept apart here.

The subject of one data set is P. falciparum. More on the design: method as in PMID 21426241. The note with it: read-out: IC50 against P. falciparum; cited from earlier work.
In data set [1] the test system is HeLa (human cervix adenocarcinoma) cells. Kind of data set: Resazurin-based cytotoxicity assay on a mammalian cell line. The note with it: 20 μM, Figure S2. The method, then:
(§1) HeLa cells were grown and maintained in a culture medium comprised of Dulbecco’s Modified Eagle’s Medium (DMEM) with 5 mM L-glutamine (Lonza, Basel, Switzerland), supplemented with 10% (v/v) heat inactivated foetal bovine serum and antibiotics (penicillin/streptomycin/fungizone-PSF) in a humidified chamber at 37 °C with an atmosphere of 5% CO2. To carry out passaging of cells, cultures were treated with 1% trypsin (w/v) to lift cells, which were then washed in 1 × phosphate buffered saline (PBS) before being re-seeded into culture flasks. For assessment of the cytotoxic effects, the small molecules were added to HeLa cells at a fixed concentration of 20 μM. After an incubation period of 24 h, the number of cells surviving drug exposure were determined using a resazurin-based cytotoxicity assay. The resazurin-based cytotoxicity assay was conducted as previously mentioned. Results were expressed as % cell—the resorufin fluorescence in small molecule-treated wells relative to untreated controls. Assessment of each small molecule was conducted in duplicate, with error bars representing standard deviation (SD).
In general terms: The colour change of resazurin is a common sign of viable cells or microbes.

Assay in data set [2]: as above
More on the design: species or system human. The note with it: human; HeLa cells, 10 μM. The method, then: as §1

In another data set the target is phosphodiesterase-4D. More on the design: method as in PMID 24473168. The settings on record: read-out: IC50 against phosphodiesterase-4D; cited from earlier work.
A further data set concerns the target T1, TbHsp70 (Trypanosoma brucei brucei, UniProt P11145).
T1 construct: His-tag; made in house; host or cells: Escherichia coli
The data set is described as follows: Basal ATPase activity assay, TbHsp70. It counts as biochemical. On the procedure: (§2) The determination of the ATPase activity of the Hsp70 proteins was performed using the high throughput colorimetric ATPase assay kit (Innova Biosciences, Cambridge, UK). This method enables the quantification of the inorganic phosphate (Pi) released from ATP hydrolysis by an enzyme. Briefly, the molecular chaperones were prepared in ATPase assay buffer (100 mM Tris-HCl, 7.5, 2 mM MgCl2, 50 mM KCl, 0.5 mM DTT) and incubated with ATP (0–2 mM) for 1 h at 37 °C. […] The samples containing Pi hydrolysed from ATP were incubated with the PiColorLock™ solution, which is a malachite green dye solution that in the presence of Pi changes absorbance due to generation of molybdate-phosphate complexes. The absorbance was measured at 595 nm using a Powerwave 96-well plate reader (BioTek Instruments, Inc., Winooski, VT, USA), and absorbance values were converted to phosphate concentrations using a standard curve of absorbance vs. phosphate concentration based on a set of Pi standards provided by the supplier assayed along with the samples. All samples were corrected for spontaneous breakdown of ATP observed in a control experiment in the absence of protein. The trypanosomal and human Hsp70s were used at 0.8 μM, and the J-proteins were used at 0.4 μM. An initial screen of the modulatory effects of the compounds on the ATPase activity of the Hsp70s was conducted using 300 μM of the compounds. […]

The subject of data set [3] is bloodstream form T. b. brucei parasites. Kind of data set: Resazurin-based anti-trypanosomal assay on bloodstream form T. b. brucei parasites. In kind it is cell-based, Trypanosoma brucei brucei. The note with it: Trypanosoma brucei. On the procedure: Bloodstream form T. b. brucei Lister 927 variant 221 strain parasites were cultured in filter sterilized complete Iscoves Modified Dulbeccos Media (IMDM) based HM1-9 medium (IMDM base powder, […] sodium bicarbonate, 1 mM hypoxanthine, 1 mM sodium pyruvate, 0.16 mM thymidine, 0.05 mM bathocuprone sulphate acid, 10% (v/v) heat inactivated foetal bovine serum, 1.5 mM L-cysteine, 0.2 mM β-mercaptoethanol, pH 7.5) in a humidified chamber at 37 °C with an atmosphere of 5% CO2. Parasite growth was monitored using a Neubauer haemocytometer to count the cell number, after which cells were diluted, according to their density, in the described pre-warmed media.
All compounds of interest were resuspended to stocks of 30 mM in DMSO and stored at −80 °C prior to use in in vitro experiments. For assessment of anti-trypanosomal activity, compounds were added to in vitro cultures of bloodstream form T. b. brucei parasites (1 × 10^5 cells/mL) in 96-well plates at a fixed concentration of 20 μM. After an incubation period of 48 h, the number of parasites surviving drug exposure were determined using a resazurin-based cytotoxicity assay. Resazurin is an oxidation–reduction sensitive dye that is reduced by living cells to resorufin. Resorufin is a fluorophore (Excitation560/Emission590) and thus was quantified in a multi-well fluorescence plate reader. Results are expressed as % parasite viability—the resorufin fluorescence in small molecule-treated wells relative to untreated controls. Assessment of each small molecule was conducted in duplicate, with error bars representing standard deviation (SD). […] The compounds were added to in vitro cultures of bloodstream form T. b. brucei parasites (1 × 10^5 cells/mL) in 96-well plates in a 3-fold dilution series with 100 μM as the highest concentration. After an incubation period of 48 h, the number of parasites surviving drug exposure were determined as previously mentioned. The % parasite viability was determined as previously mentioned. The IC50 (the concentration of compound required to decrease cell viability of T. b. brucei parasites by 50% compared to those grown in the absence of the compound) values for each of the compounds were determined from a dose–response curve by non-linear regression generated using GraphPad Prism® (v. 7.0; San Diego, CA, USA) software. For comparative purposes, pentamidine at a fixed concentration of 1 μM was employed as a drug standard.

The next data set concerns PfHsp70-1. More on the design: method as in PMID 21426241. The settings on record: cited from earlier work.
Another data set relates to TbHsp70.4. The data set is described as follows: Basal ATPase activity assay, TbHsp70.4. The settings on record: TbHsp70.4, 1 μM. It counts as biochemical, Trypanosoma brucei. The method, then: as §2
For the next data set, the target named is T2, TbHsp70 / Tbj2 (Trypanosoma brucei brucei, UniProt P11145).
T2 construct: His-tag; made in house; host or cells: Escherichia coli (Tbj2: E. coli BL21 (DE3))
T2 sequence (P11145 whole entry): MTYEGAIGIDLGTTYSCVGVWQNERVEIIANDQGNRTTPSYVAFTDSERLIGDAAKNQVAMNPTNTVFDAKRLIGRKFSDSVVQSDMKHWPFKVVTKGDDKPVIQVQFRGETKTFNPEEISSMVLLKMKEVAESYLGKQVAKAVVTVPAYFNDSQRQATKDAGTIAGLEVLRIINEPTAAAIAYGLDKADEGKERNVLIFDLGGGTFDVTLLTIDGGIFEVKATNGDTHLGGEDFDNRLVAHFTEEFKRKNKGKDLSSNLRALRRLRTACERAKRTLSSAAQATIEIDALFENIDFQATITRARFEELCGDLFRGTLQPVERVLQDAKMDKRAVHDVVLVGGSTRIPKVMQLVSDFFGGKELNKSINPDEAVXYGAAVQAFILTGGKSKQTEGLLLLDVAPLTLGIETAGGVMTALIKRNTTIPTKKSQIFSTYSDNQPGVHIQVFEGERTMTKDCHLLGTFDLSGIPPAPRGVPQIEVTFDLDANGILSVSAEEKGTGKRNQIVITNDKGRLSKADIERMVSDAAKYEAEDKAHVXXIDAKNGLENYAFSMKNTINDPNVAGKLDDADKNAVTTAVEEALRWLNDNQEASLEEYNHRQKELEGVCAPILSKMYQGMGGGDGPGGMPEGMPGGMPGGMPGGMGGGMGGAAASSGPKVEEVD
Kind of data set: Tbj2-stimulated ATPase activity assay, TbHsp70. In kind it is biochemical. The settings on record: TbHsp70, 150 μM, Figure 5A. On the procedure:
(§3) The determination of the ATPase activity of the Hsp70 proteins was performed using the high throughput colorimetric ATPase assay kit (Innova Biosciences, Cambridge, UK). This method enables the quantification of the inorganic phosphate (Pi) released from ATP hydrolysis by an enzyme. Briefly, the molecular chaperones were prepared in ATPase assay buffer (100 mM Tris-HCl, 7.5, 2 mM MgCl2, 50 mM KCl, 0.5 mM DTT) and incubated with ATP (0–2 mM) for 1 h at 37 °C. […] The samples containing Pi hydrolysed from ATP were incubated with the PiColorLock™ solution, which is a malachite green dye solution that in the presence of Pi changes absorbance due to generation of molybdate-phosphate complexes. The absorbance was measured at 595 nm using a Powerwave 96-well plate reader (BioTek Instruments, Inc., Winooski, VT, USA), and absorbance values were converted to phosphate concentrations using a standard curve of absorbance vs. phosphate concentration based on a set of Pi standards provided by the supplier assayed along with the samples. All samples were corrected for spontaneous breakdown of ATP observed in a control experiment in the absence of protein. The trypanosomal and human Hsp70s were used at 0.8 μM, and the J-proteins were used at 0.4 μM. An initial screen of the modulatory effects of the compounds on the ATPase activity of the Hsp70s was conducted using 300 μM of the compounds. Compounds identified to have a modulatory effect on the basal and J-protein-stimulated ATPase activity of Hsp70 were used at varying concentrations. The modulatory effect of the selected compounds on the basal and J-protein stimulated ATPase activity of the T. brucei Hsp70s was represented as fold change with the basal and J-protein stimulated ATPase activity of the Hsp70s taken as 1 respectively. These experiments were conducted on three independently purified batches of proteins, but due to limited availability of the selected compounds, each assay was conducted in duplicate on each batch of protein. In control reactions to evaluate the effect of DMSO on basal and J-protein stimulated ATPase activity of the Hsp70s, the solvent was added to a final concentration of 1% (v/v) in the assay. The assays were performed in duplicate on three independently purified batches of proteins.

The test system of a further data set is TbHsp70.4 / Tbj2. Kind of data set: Tbj2-stimulated ATPase activity assay, TbHsp70.4. The settings on record: TbHsp70.4, 150 μM, Figure 5B. In kind it is biochemical, Trypanosoma brucei. The method, then:
as §3

The test system of the next data set is c-Met kinase. More on the design: method as in PMID 23081922. The note with it: 10 μM; cited from earlier work.
In a further data set the test system is human Hsp70. More on the design: method as in PMID 24854538. The settings on record: cited from earlier work.
Another data set has as its system plasmodial Hsp70s. More on the design: method as in PMID 24854538. The settings on record: cited from earlier work.
The mark [4] stands for this setting: T. b. brucei parasites, stated as bound, read-out: IC50 values.
The mark [5] stands for this setting: Table 1, T. b. brucei parasites cultured in vitro, 48 h, dose-response, read-out: IC50/μM.
Setting [6] is: Table S1, 48 select compounds, T. b. brucei, 48 h, read-out: IC50/.

T1 sequence (P11145 whole entry): as above

Turning to `C/C(=C/C(=O)CC(C)C)CCC/C(C)=C/CC/C(C)=C/CNC=O` [malonganenone C], the IC50 with P. falciparum was 5.2 µM. For `CC(C)=CCC/C(C)=C/Cn1ccc(=N)n(C/C=C(\C)CCC=C(C)C)c1=O` [Compound 61, 1,3-bis((E)-3,7-dimethylocta-2,6-dien-1-yl)-4-imino-3,4-dihydropyrimidin-2(1H)-one], in data set [1], the “toxicity to HeLa cells” value is on record as “toxic”.

Usually viability stands for the share of living cells, or the viability signal relative to a control. In the case of `CC[C@H]1CN2CCc3cc(OC)c(OC)cc3[C@@H]2C[C@@H]1C[C@H]1NCCc2cc(OC)c(OC)cc21` [Emetine, reference compound], the viability at 24 h, 10 µM in data set [2] was 6.03%. As to `CC(C)=CC(=O)C/C(C)=C/CC/C(C)=C/CC/C(C)=C/Cn1cnc2c1c(=O)ncn2C` [malonganenone L], the IC50 at phosphodiesterase-4D was 8.5 µM. By inhibition is commonly meant the drop in the measured response relative to a control, in per cent. Higher therefore signals a strong effect. As for `CC(C)=CCC/C(C)=C/Cn1ccc(=NC=O)n(C/C=C(\C)CCC=C(C)C)c1=O` [Compound 60, N-(-1,3-Bis((E)-3,7-dimethylocta-2,6-dien-1-yl)-2-oxo-2,3-dihydropyrimidin-4(1H)-ylidene)formamide], the inhibition at 300 µM against TbHsp70 (TbHsp70, 300 μM, Figure S6) worked out at 39%. Also, the results for the IC50 in [3] (setting [4]), in data set [3] (setting [5]) and in data set [3] (setting [6]) were < 7 µM, 4.9 µM and 4.89 µM, respectively.

As to `CNC(=O)c1c(N(C)C=O)ncn1C/C=C(\C)CC/C=C(\C)CCC/C(C)=C\C(=O)C=C(C)C` [malonganenone Q], the IC50 on phosphodiesterase-4D was 20.3 µM. With `CNC(=O)c1c(N(C)C=O)ncn1C/C=C(\C)CC/C=C(\C)CCC/C(C)=C\C(=O)CC(C)C` [malonganenone B], the “activity against PfHsp70-1” value in the data set on PfHsp70-1 is given as “dose-dependent”.

As for `CC(C)=CCC/C(C)=C/CCC(C)=CCn1cnc2c(cnn2CC=C(C)CC/C=C(\C)CCC=C(C)C)c1=O` [Compound 47, 1,5-Bis((6E)-3,7,11-trimethyldodeca-2,6,10-trien-1-yl)-1,5-dihydro-4H-pyrazolo[3,4-d]pyrimidin-4-one], the “inhibition of basal ATPase activity” value with TbHsp70.4 amounted to 66%. At TbHsp70 (TbHsp70, 1 μM), 1 µM produced 44% inhibition. Moreover, the “effect of order of addition (compound vs Tbj2) on inhibition of J-stimulated ATPase activity” value at TbHsp70 / Tbj2 and in the data set with TbHsp70.4 / Tbj2 was “no significant difference” in each case. Also, the IC50 in [3] (setting [4]) is < 7 µM; in data set [3] (setting [5]), 1.2 µM; in data set [3] (setting [6]), 1.23 µM.

Turning to `CC(C)=CCC/C(C)=C/CCC(C)=CCn1ccc(=NC=O)n(CC=C(C)CC/C=C(\C)CCC=C(C)C)c1=O` [Compound 62, N-(-2-Oxo-1,3-bis((6E)-3,7,11-trimethyldodeca-2,6,10-trien-1-yl)-2,3-dihydropyrimidin-4(1H)-ylidene)formamide], the “toxicity to HeLa cells” value in data set [1] is “toxic”. For the compound `C/C(=C\CC/C(C)=C/Cn1cnc2c1c(=O)ncn2C)CC/C=C(\C)CC(=O)CC(C)C` [malonganenone D], the “reduction of c-Met kinase activity” value with c-Met kinase is 2 fold. Regarding `C/C(=C/C(=O)CC(C)C)CCC/C(C)=C/CC/C(C)=C/Cn1cnc2c1c(=O)ncn2C` [malonganenone A], the IC50 with P. falciparum was 0.81 µM. The “effect on steady-state and J-protein stimulated ATPase activity” value is listed as “not that of human Hsp70” in the data set with human Hsp70 and “inhibited” in the data set on plasmodial Hsp70s. `CC(C)=CCC/C(C)=C/Cn1cnc(=N)c2ncn(C/C=C(\C)CCC=C(C)C)c21` [Compound 5, 3,9-bis((E)-3,7-dimethylocta-2,6-dien-1-yl)-3,9-dihydro-6H-purin-6-imine]: the “toxicity to HeLa cells” value in [1] was “toxic”.
